Counter-ions that a name gives are not always drawn.
Legend:
Format in all cases: physicochemical
[1] = Dynamic vapor sorption (DVS) / hygroscopicity
[2] = Interconversion studies of Form 1 and Form 2 stirred in solvents; details: isopropanol (50° C., 7 days), acetone (50° C., 3 days), acetone/water 9/1 v/v (50° C., 1 day; room temperature, 1 day)
Procedure: In interconversion studies, equal amounts of Form 1 and Form 2 were added in various solvents and stirred at various temperatures for several days.

[3] = Solid-state chemical and physical stability on storage

In the case of `[2H]C([2H])([2H])CC(=O)c1cnc(NC(=O)C2CC2)cc1Nc1cccc(-c2ncn(C([2H])([2H])[2H])n2)c1OC` [Form 1, N-(4-((2-methoxy-3-(1-(methyl-d3)-1H-1,2,4-triazol-3-yl)phenyl)amino)-5-(propanoyl-3,3,3-d3)pyridin-2-yl) cyclopropanecarboxamide hydrochloride], the Hygroscopicity [1] is reported as “slightly hygroscopic”, the “Form change after DVS analysis” value ([1]; after DVS analysis) is reported as “No form change” and the “DVS reversable total mass change” value ([1]; between about 0% to about 80% relative humidity (RH) at 25° C.) is reported as “about 0.2 wt. %”. For the same compound, the “DVS reversable total mass change” value ([1]; between about 0% to about 90% relative humidity (RH) at 25° C.) was “about 0.3 wt. %”, the “Relative stability of crystalline forms (form obtained from equal amounts of Form 1 and Form 2)” value [2] was “more stable crystalline form” and the “Time chemically and physically stable in the solid form” value ([3]; 40° C./75% RH) was “at least 10 days”. For the same compound, the “Time chemically and physically stable in the solid form” value ([3]; 60° C.) was “at least 10 days” and the “Time chemically and physically stable” value ([3]; ambient temperature and humidity) was “at least 12 months”.

Source: patent publication US20260209205A1, “CRYSTALLINE FORMS OF A TYK2 INHIBITOR AND USES THEREOF” (Alumis Inc., priority 2022, published 2026)
